Experiments:
[1] = system: Echinochloa oryzoides (Ard.) Fritsch.; assay: Preemergence weed control under flooded paddy conditions, ECHORC (Watergrass (Calif.)); assay type: in vivo; settings: flooded paddy; for ECHORC: preemergence weeds, herbicidal effect rating 0-9, three to four weeks after treatment; for herbicidal effect rating, ECHORC: preemergence, rated three to four weeks after treatment; on herbicidal effect rating, ECHORC: meaning of each grade not given here
[2] = system: Cyperus iria; assay: Preemergence weed control under flooded paddy conditions, CYPIR (Rice Flatsedge); assay type: in vivo; settings: flooded paddy; for CYPIR: preemergence weeds, herbicidal effect rating 0-9, three to four weeks after treatment; for herbicidal effect rating, CYPIR: preemergence, rated three to four weeks after treatment; on herbicidal effect rating, CYPIR: meaning of each grade not given here
[3] = system: Cyperus serotinus, Rottb.; assay: Preemergence weed control under flooded paddy conditions, CYPSE (Flatsedge); assay type: in vivo; settings: for CYPSE: preemergence weeds, herbicidal effect rating 0-9, three to four weeks after treatment; for herbicidal effect rating, CYPSE: preemergence, rated three to four weeks after treatment; on herbicidal effect rating, CYPSE: meaning of each grade not given here
[4] = system: Monochoria vaginalis, Presl.; assay: Preemergence weed control under flooded paddy conditions, MOOVA (Monochoria); assay type: in vivo; settings: flooded paddy; for MOOVA: preemergence weeds, herbicidal effect rating 0-9, three to four weeks after treatment; for herbicidal effect rating, MOOVA: preemergence, rated three to four weeks after treatment; on herbicidal effect rating, MOOVA: meaning of each grade not given here
[5] = system: Sagittaria pygmaea, L.; assay: Preemergence weed control under flooded paddy conditions, SAGPY (Arrowhead (Pygmaea)); assay type: in vivo; settings: flooded paddy; for SAGPY: preemergence weeds, herbicidal effect rating 0-9, three to four weeks after treatment; for herbicidal effect rating, SAGPY: preemergence, rated three to four weeks after treatment; on herbicidal effect rating, SAGPY: meaning of each grade not given here
[6] = system: Oryza sativa, (L.) Tebonnet; assay: Rice tolerance to post-transplant applications under flooded paddy conditions (Example 187), ORYSAT (Rice, Tebonnet); settings: for ORYSAT: herbicidal effect rating 0-9, three to four weeks after treatment; for herbicidal effect rating ORYSAT / herbicidal effect rating, ORYSAT (rice tolerance): rated three to four weeks after treatment

## CN(C(=O)COc1ccccc1-c1nsc2ccc(-n3c(=O)cc(C(F)(F)F)n(C)c3=O)cc12)S(C)(=O)=O [Example 438, Acetamide, 2-{o-{5-[3,6-dihydro-3-methyl-2,6-dioxo-4-(trifluoromethyl)-1(2H)-pyrimidinyl]-1,2-benzisothiazol-3-yl}phenoxy}-N-methyl-N-(methylsulfonyl)-]
[1]; 0.0320 kg/ha
  ECHORC: 7.0
[1]; 0.0620 kg/ha
  ECHORC: 8.0
[1]; 0.1250 kg/ha
  ECHORC: 9.0
[1]; 0.2500 kg/ha
  ECHORC: 9.0
[2]; 0.0320 kg/ha
  CYPIR: 4.5
[2]; 0.0620 kg/ha
  CYPIR: 6.5
[2]; 0.1250 kg/ha
  CYPIR: 8.5
[2]; 0.2500 kg/ha
  CYPIR: 9.0
[3]; 0.0320 kg/ha
  CYPSE: 4.5
[3]; 0.0620 kg/ha
  CYPSE: 9.0
[3]; 0.1250 kg/ha
  CYPSE: 7.0
[3]; 0.2500 kg/ha
  CYPSE: 9.0
[4]; 0.0320 kg/ha
  MOOVA: 8.0
[4]; 0.0620 kg/ha
  MOOVA: 8.5
[4]; 0.1250 kg/ha
  MOOVA: 9.0
[4]; 0.2500 kg/ha
  MOOVA: 9.0
[5]; 0.0320 kg/ha
  SAGPY: 2.0
[5]; 0.0620 kg/ha
  SAGPY: 3.5
[5]; 0.1250 kg/ha
  SAGPY: 8.5
[5]; 0.2500 kg/ha
  SAGPY: 9.0
[6]; 0.0320 kg/ha
  ORYSAT: 4.0
[6]; 0.0620 kg/ha
  ORYSAT: 5.0
[6]; 0.1250 kg/ha
  ORYSAT: 7.0
[6]; 0.2500 kg/ha
  ORYSAT: 8.0

## Cn1c(C(F)(F)F)cc(=O)n(-c2ccc3snc(C(C#N)=Cc4cc5ccccc5[nH]4)c3c2)c1=O [Example 601, 1,2-Benzisothiazole-3-acetonitrile, 5-[3,6-dihydro-3-methyl-2,6-dioxo-4-(trifluoromethyl)-1(2H)-pyrimidinyl]-alpha-(indol-2-ylmethylene)-]
[1]; Rate 0.0320 kg/ha
  herbicidal effect rating, ECHORC: 0.0
[1]; Rate 0.0620 kg/ha
  herbicidal effect rating, ECHORC: 0.0
[1]; Rate 0.1250 kg/ha
  herbicidal effect rating, ECHORC: 2.0
[1]; Rate 0.2500 kg/ha
  herbicidal effect rating, ECHORC: 6.0
[2]; Rate 0.0320 kg/ha
  herbicidal effect rating, CYPIR: 0.0
[2]; Rate 0.0620 kg/ha
  herbicidal effect rating, CYPIR: 0.0
[2]; Rate 0.1250 kg/ha
  herbicidal effect rating, CYPIR: 4.0
[2]; Rate 0.2500 kg/ha
  herbicidal effect rating, CYPIR: 4.0
[3]; Rate 0.0320 kg/ha
  herbicidal effect rating, CYPSE: 0.0
[3]; Rate 0.0620 kg/ha
  herbicidal effect rating, CYPSE: 0.0
[3]; Rate 0.1250 kg/ha
  herbicidal effect rating, CYPSE: 0.0
[3]; Rate 0.2500 kg/ha
  herbicidal effect rating, CYPSE: 3.0
[4]; Rate 0.0320 kg/ha
  herbicidal effect rating, MOOVA: 6.0
[4]; Rate 0.0620 kg/ha
  herbicidal effect rating, MOOVA: 7.0
[4]; Rate 0.1250 kg/ha
  herbicidal effect rating, MOOVA: 9.0
[4]; Rate 0.2500 kg/ha
  herbicidal effect rating, MOOVA: 9.0
[5]; Rate 0.0320 kg/ha
  herbicidal effect rating, SAGPY: 0.0
[5]; Rate 0.0620 kg/ha
  herbicidal effect rating, SAGPY: 0.0
[5]; Rate 0.1250 kg/ha
  herbicidal effect rating, SAGPY: 0.0
[5]; Rate 0.2500 kg/ha
  herbicidal effect rating, SAGPY: 0.0
[6]; Rate 0.0320 kg/ha
  herbicidal effect rating ORYSAT: 4.0
[6]; Rate 0.0620 kg/ha
  herbicidal effect rating ORYSAT: 5.0
[6]; Rate 0.1250 kg/ha
  herbicidal effect rating ORYSAT: 6.0
[6]; Rate 0.2500 kg/ha
  herbicidal effect rating ORYSAT: 7.0

## Cc1ccc(O)c(-c2noc3ccc(-n4c(=O)cc(C(F)(F)F)n(C)c4=O)c(Cl)c23)c1 [Example 41, 3-[4-Chloro-3-(6-hydroxy-m-tolyl)-1,2-benzisoxazol-5-yl]-1-methyl-6-(trifluoromethyl)-2,4(1H,3H)-pyrimidinedione]
[1]; 0.0313 kg/ha
  herbicidal effect rating, ECHORC: 0.0
[1]; 0.0625 kg/ha
  herbicidal effect rating, ECHORC: 0.0
[1]; 0.1250 kg/ha
  herbicidal effect rating, ECHORC: 2.0
[1]; 0.2500 kg/ha
  herbicidal effect rating, ECHORC: 6.0
[2]; 0.0313 kg/ha
  herbicidal effect rating, CYPIR: 0.0
[2]; 0.0625 kg/ha
  herbicidal effect rating, CYPIR: 0.0
[2]; 0.1250 kg/ha
  herbicidal effect rating, CYPIR: 1.0
[2]; 0.2500 kg/ha
  herbicidal effect rating, CYPIR: 2.0
[3]; 0.0313 kg/ha
  herbicidal effect rating, CYPSE: 0.0
[3]; 0.0625 kg/ha
  herbicidal effect rating, CYPSE: 0.0
[3]; 0.1250 kg/ha
  herbicidal effect rating, CYPSE: 0.0
[3]; 0.2500 kg/ha
  herbicidal effect rating, CYPSE: 0.0
[4]; 0.0313 kg/ha
  herbicidal effect rating, MOOVA: 0.0
[4]; 0.0625 kg/ha
  herbicidal effect rating, MOOVA: 2.0
[4]; 0.1250 kg/ha
  herbicidal effect rating, MOOVA: 4.0
[4]; 0.2500 kg/ha
  herbicidal effect rating, MOOVA: 9.0
[5]; 0.0313 kg/ha
  herbicidal effect rating, SAGPY: 0.0
[5]; 0.0625 kg/ha
  herbicidal effect rating, SAGPY: 0.0
[5]; 0.1250 kg/ha
  herbicidal effect rating, SAGPY: 0.0
[5]; 0.2500 kg/ha
  herbicidal effect rating, SAGPY: 0.0
[6]; 0.0313 kg/ha
  herbicidal effect rating, ORYSAT (rice tolerance): 0.0
[6]; 0.0625 kg/ha
  herbicidal effect rating, ORYSAT (rice tolerance): 0.0
[6]; 0.1250 kg/ha
  herbicidal effect rating, ORYSAT (rice tolerance): 0.0
[6]; 0.2500 kg/ha
  herbicidal effect rating, ORYSAT (rice tolerance): 0.0

From patent EP0908457B1, “3-(1,2-benzisothiazol- and isoxazol-5-Y1)-2,4(1H,3H)-pyrimidinedione or thione and 3-(1,2-benzisothiazol- and isoxazol-5-y1)-4(3H)-pyrimidinone or thione herbicidal agents” (BASF AKTIENGESELLSCHAFT, priority 1997, dated 1999)
